The nature of the series: Water solubility (statement).

SMILES strings stand for the structures. Counter-ions that a name gives are not always drawn. Like-named read-outs stand apart in the source and are kept apart here.

For the compound `CC(N)Cc1ccccc1` (racemic) [Amphetamine sulfate, racemic amphetamine sulfate], the solubility entry is given as “freely soluble”. Moreover, the solubility entry (listed as Racemic amphetamine sulfate) was “freely water soluble”.

(Values after patent US20180256515A1, “ORAL AMPHETAMINE COMPOSITION” (Adare Pharmaceuticals, Inc., priority 2017, published 2018).)
